In patent US11254670B2 (NUVATION BIO INC., priority 2019, dated 2022):

Tests used:
[1] = molecular target: adenosine A1 (human) membrane (Homo sapiens (Human), UniProt P30542); assay: A1 adenosine receptor radioligand binding assay ([3H] DPCPX); conditions: radioligand [3H] DPCPX 1 nM, compound 200 nM
Procedure: A second A1 adenosine receptor radioligand binding assay protocol was used. The protocol used adenosine A1 (human) membrane (PerkinElmer ES-010-M400UA) at a concentration of 2.5 μg/well/100 μl and the radioligand [3H] DPCPX (Cat No. PerkinElmer-NET974250UC) at a final concentration of 1 nM. Testing compounds were tested at a final concentration of 200 nM. CGS-15943, the reference compound, was tested in an 8-point 4-fold serial dilution, starting at a top concentration of 1 μM. 1 μl of compounds/high control/low control was transferred to the assay plate according to a plate map, followed by 100 μl of membrane stocks and 100 μl of radioligand, in assay buffer (25 mM HEPES, 5 mM MgCl2, 1 mM CaCl2, 100 mM NaCl, pH 7.4). The plate was sealed and incubated at RT for 1 hour. Unifilter-96 GF/C filter plates (Perkin Elmer Cat #6005174) were soaked with 50 μl of 0.3% PEI per well for at least 0.5 hour at room temperature. When the binding assays were completed, the reaction mixtures were filtered through GF/C plates using Perkin Elmer Filtermate Harvester, and each plate washed 4 times with cold wash buffer (25 mM HEPES, 5 mM MgCl2, 1 mM CaCl2, 100 mM NaCl, pH 7.4). The filter plates were dried for 1 hour at 50 degrees. After drying, the bottom of the filter plate wells was sealed, 50 μl of Perkin Elmer Microscint 20 cocktail was added, and the top of the filter plate was sealed. ^3H trapped on the filter was counted using Perkin Elmer MicroBeta2 Reader. The data were analyzed with GraphPad Prism 5 to obtain binding IC50 values for the reference compound. The “Inhibition [% Control]” was calculated using the equation: % Inh=(1−Background subtracted Assay value/Background subtracted HC value)*100, where HC is high control.

[2] = molecular target: human recombinant adenosine A2A receptor (Homo sapiens (Human), UniProt P29274); assay: cAMP assay (Assay 2), HEK-293 cells expressing A2A receptor; format: cell-based; conditions: HEK-293 cells expressing human recombinant adenosine A2A receptor
Procedure: (§1) The functional activity of compounds was tested using Assay 2, below, to detect the presence of cAMP. Assay 1 is an alternative assay for this purpose. Activation of G-protein coupled receptors (such as A2A) results in activation of adenylyl cyclase which converts ATP into cAMP which is used as a downstream signaling molecule. Therefore, molecules which act as GPCR (or specifically A2A receptor) antagonists cause a decrease in intracellular cAMP concentration.
(§2) Assay 2 (Table B2): This assay used HEK-293 cells expressing human recombinant adenosine A2A receptor (or, alternatively, A1 receptor) that were grown prior to the test in media without antibiotic. 100 nL of test articles at 100× of final concentration were transferred to assay plate by Echo. Cells were washed twice with 5 mL of PBS and 10 μL of cells were mixed with 5 mL PBS. After aspirating the PBS and adding 1.5 mL versine, cells were incubated at 37° C. for 2-5 min. After centrifugation, 4 mL of medium was added and adjusted cell density to 5,000 cells/well with Stimulation Buffer. 10 μL of cells were aliquoted to the assay plate, centrifuged at 1000 rpm for 1 minute, and incubated for 60 minutes at room temperature. 5 μL 4× Eu-cAMP tracer solution and 5 μL 4× Ulight™-anti-cAMP solution were added to assay plate, followed by centrifugation and 60-minute incubation at room temperature. Plates were read on EnVision.

[3] = molecular target: adenosine A2a (human) membrane (Homo sapiens (Human), UniProt P29274); assay: A2A adenosine receptor radioligand binding assay ([3H] CGS-21680); conditions: radioligand [3H] CGS-21680 6 nM
Procedure: A second A2A adenosine receptor radioligand binding assay protocol was used. The protocol used adenosine A2a (human) membrane (PerkinElmer RBHA2AM400UA) at a concentration of 5 μg/well/100 μl and the radioligand [3H] CGS-21680 (Cat No. PerkinElmer-NET1021250UC) at a final concentration of 6 nM. Testing compounds were diluted with DMSO to make 8-point 4-fold serial dilution, starting at 0.2 mM. CGS-15943 was the reference compound. 1 μl of compounds/high control/low control was transferred to the assay plate according to a plate map, followed by 100 μl of membrane stocks and 100 μl of radioligand, in assay buffer (50 mM Tris-HCl, 10 mM MgCl2, 1 mM EDTA, pH 7.4). The plate was sealed and incubated at RT for 2 hours. Unifilter-96 GF/C filter plates (Perkin Elmer Cat #6005174) were soaked with 50 μl of 0.3% PEI per well for at least 0.5 hour at room temperature. When the binding assays were completed, the reaction mixtures were filtered through GF/C plates using Perkin Elmer Filtermate Harvester, and each plate washed 4 times with cold wash buffer (50 mM Tris-HCl, 154 mM NaCl, pH 7.4). The filter plates were dried for 1 hour at 50 degrees. After drying, the bottom of the filter plate wells was sealed, 50 μl of Perkin Elmer Microscint 20 cocktail was added, and the top of the filter plate was sealed. ^3H trapped on the filter was counted using Perkin Elmer MicroBeta2 Reader. The data were analyzed with GraphPad Prism 5 to obtain binding IC50 values. The “Inhibition [% Control]” was calculated using the equation: % Inh=(1−Background subtracted Assay value/Background subtracted HC value)*100, where HC is high control.

[4] = molecular target: human recombinant adenosine A1 receptor (Homo sapiens (Human), UniProt P30542); assay: cAMP assay (Assay 2), HEK-293 cells expressing A1 receptor; format: cell-based
Procedure: as §1, §2

activated human PBMCs = assay: Human T cell activation assay (TNF-α and IFN-γ ELISA); format: cell-based; conditions: activated human T cells in vitro, NECA 1 μM or 5 μM
Procedure: Human T Cell Activation Assay: Fresh human blood was diluted with the same volume of PBS and the buffy coat containing peripheral blood mononuclear cells (PBMCs) were prepared and resuspended in culture medium at a density of 2×10^6/mL. 2×10^5 PBMCs (in 100 μL) were plated to each well of a 96-well flat bottom plate. 25 μL of 8× final concentration of 10-fold serial diluted or single concentration compounds was added to indicated wells and incubated for 30 mins in 37° C./5% CO2. 25 μL of 8× final concentration of NECA (1 μM or 5 μM) was added to selected wells and incubated for 30 min in 37° C./5% CO2. Beads included in T cell activation/expansion kit (Miltenyi biotec Cat #130-091-441) at a bead-to-cell ratio of 1:6 in 50 μL were added to all wells with the final concentration of DMSO at 0.1% and final volume at 200 μL. 60 μL of supernatant post 24 hr and 48 hr incubation was collected for TNF-α and IFN-γ concentration evaluation using TNF-α ELISA ready-set-go kit (eBioscience, Cat #88-7346-77) and IFN-γ ELISA ready-set-go kit (eBioscience, Cat #88-7316-77), respectively.

adenosine A1 (human) membrane, sequence (P30542 whole entry): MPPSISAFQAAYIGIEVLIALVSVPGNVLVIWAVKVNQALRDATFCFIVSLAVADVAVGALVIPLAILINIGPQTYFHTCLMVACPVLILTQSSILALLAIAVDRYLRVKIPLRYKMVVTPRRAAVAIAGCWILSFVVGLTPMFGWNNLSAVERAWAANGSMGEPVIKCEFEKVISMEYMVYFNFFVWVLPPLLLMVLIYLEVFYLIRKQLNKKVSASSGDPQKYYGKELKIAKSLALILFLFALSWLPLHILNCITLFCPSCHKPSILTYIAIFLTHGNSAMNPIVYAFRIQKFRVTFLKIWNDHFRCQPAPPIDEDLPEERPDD
adenosine A2a (human) membrane, sequence (P29274 whole entry): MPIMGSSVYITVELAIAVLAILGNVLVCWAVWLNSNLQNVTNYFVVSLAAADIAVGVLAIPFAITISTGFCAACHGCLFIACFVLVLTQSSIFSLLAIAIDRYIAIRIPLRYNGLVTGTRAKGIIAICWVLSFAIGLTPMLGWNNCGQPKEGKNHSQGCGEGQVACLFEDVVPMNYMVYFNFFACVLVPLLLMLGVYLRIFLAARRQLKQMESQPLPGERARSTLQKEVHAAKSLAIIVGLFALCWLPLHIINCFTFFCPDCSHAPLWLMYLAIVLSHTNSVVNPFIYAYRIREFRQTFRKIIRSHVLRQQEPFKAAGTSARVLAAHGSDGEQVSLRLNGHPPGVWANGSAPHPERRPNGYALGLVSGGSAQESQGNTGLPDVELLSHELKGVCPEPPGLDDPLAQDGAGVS
human recombinant adenosine A2A receptor, sequence (P29274 whole entry): as above
human recombinant adenosine A1 receptor, sequence (P30542 whole entry): as the sequence (P30542 whole entry) above

| SMILES | inhibition at 0.2 µM [1] [%] | IC50 [2] [nM] | IC50 [3] [nM] | IC50 [4] [nM] | reversal of NECA-mediated suppression of TNF-α secretion (activated human PBMCs; FIG. 1) | reversal of NECA-mediated suppression of IFN-γ secretion (activated human PBMCs; FIG. 2) |
| --- | --- | --- | --- | --- | --- | --- |
| Cn1cc(-c2cc3c(=O)cc[nH]c3nc2-c2ccccc2)cc(Cl)c1=O [Compound 75] | 82 | 195 |  |  |  |  |
| CC(C)n1cc(-c2cc3c(=O)cc[nH]c3nc2-c2ccccc2)ccc1=O [Compound 1, 6-(1-isopropyl-6-oxo-1,6-dihydropyridin-3-yl)-7-phenyl-1,8-naphthyridin-4(1H)-one] | 98 | 33.8 | 2.6 | 3.2 | reversed NECA-mediated suppression | reversed NECA-mediated suppression |
| N#Cc1cccc(-c2nc3[nH]ccc(=O)c3cc2-c2ccc3ncsc3c2)c1 [Compound 79, 3-(3-(benzo[d]thiazol-6-yl)-5-oxo-5,8-dihydro-1,8-naphthyridin-2-yl)benzonitrile] | 85 |  | 9.5 |  |  |  |
| Cc1c(C#N)cccc1-c1nc2[nH]ccc(=O)c2cc1-c1ccc2ncccc2c1 [Compound 55, 2-methyl-3-(5-oxo-3-(quinolin-6-yl)-5,8-dihydro-1,8-naphthyridin-2-yl)benzonitrile] | 5 |  | 179 |  |  |  |
| Cn1cc(-c2cc3c(=O)cc[nH]c3nc2-c2ccccc2)ccc1=O [Compound 76] | 92 | 156 |  |  |  |  |
| Cc1cc(-c2cc3c(=O)cc[nH]c3nc2-c2cccc(C#N)c2)cc(Cl)n1 [Compound 6, 3-(3-(2-chloro-6-methylpyridin-4-yl)-5-oxo-5,8-dihydro-1,8-naphthyridin-2-yl)benzonitrile] | 26 |  | 113 |  |  |  |
| CC(C)n1cc(-c2cc3c(=O)cc[nH]c3nc2-c2ccccc2)cc(Cl)c1=O [Compound 7, 6-(5-chloro-1-isopropyl-6-oxo-1,6-dihydropyridin-3-yl)-7-phenyl-1,8-naphthyridin-4(1H)-one] |  | 11 | 3.5 | 5.8 |  |  |
| Cc1cc(-c2cc3c(=O)cc[nH]c3nc2-c2cccc(C#N)c2C)cc(Cl)n1 [Compound 3, 3-(3-(2-chloro-6-methylpyridin-4-yl)-5-oxo-5,8-dihydro-1,8-naphthyridin-2-yl)-2-methylbenzonitrile] | 7 |  | 2600 |  |  |  |
| N#Cc1cccc(-c2nc3[nH]ccc(=O)c3cc2-c2ccc3[nH]ncc3c2)c1 [Compound 78, 3-(3-(1H-indazol-5-yl)-5-oxo-5,8-dihydro-1,8-naphthyridin-2-yl)benzonitrile] | 81 |  | 49 |  |  |  |
| N#Cc1cccc(-c2nc3[nH]ccc(=O)c3cc2-c2ccc3[nH]cnc3c2)c1 [Compound 80, 3-(3-(1H-benzo[d]imidazol-5-yl)-5-oxo-5,8-dihydro-1,8-naphthyridin-2-yl)benzonitrile] | 79 |  | 17 |  |  |  |
| Cc1cc(-c2cc3c(=O)cc[nH]c3nc2-c2ccccc2)cc(Cl)c1NS(C)(=O)=O [Compound 45, N-(2-chloro-6-methyl-4-(5-oxo-2-phenyl-5,8-dihydro-1,8-naphthyridin-3-yl)phenyl)methanesulfonamide] | 34 | > 10000 |  |  |  |  |
| N#Cc1cccc(-c2nc3[nH]ccc(=O)c3cc2-c2ccc3ncccc3c2)c1 [Compound 77, 3-(5-oxo-3-(quinolin-6-yl)-5,8-dihydro-1,8-naphthyridin-2-yl)benzonitrile] | 61 | 213 | 5.4 |  |  |  |
